Activity calls are given as the source filed them. The rule behind the calls is not given here.
Test system: L. donovani-infected THP-1 macrophages, intracellular amastigote imaging
Assay: intracellular L. donovani amastigote inhibition, imaging, THP-1 host macrophages, host toxicity (AID 1159564)
[1] = measured here: THP-1 host cell toxicity
[2] = measured here: amastigotes per macrophage

How did the IC50 turn out when O=C(c1cccc(Cl)c1Cl)N1CCn2c1nc(-c1ccncc1)cc2=O was run?
The IC50 was > 50 µM (inactive).

And the IC50 [1]?
The IC50 was greater than 50 µM.

And the IC50 [2]?
Its IC50 is 32 µM.

Which IC50 does the source give for O=C1c2cnc(N3CCCC3)nc2CN1c1ccc2c(c1)OCO2 here?
The IC50 was 10 µM.

What about the IC50 [1] of the same compound?
Its IC50 is greater than 50 µM.

And the IC50 [2]?
Its IC50 is 6.3 µM.

Which results are given for CC(C)(C)CC(=O)NCCc1csc(-c2ccc(F)cc2)n1?
IC50: 32 µM; IC50 [1]: 16 µM; IC50 [2]: 16 µM

How did the IC50 turn out when O=C1CN(C2CCCc3c(OCc4ccncc4)cccc32)C(=O)N1C1CCCCC1 (configuration not stated) was run?
The IC50 was > 50 µM (inactive).

What about the IC50 [1] of the same compound?
The IC50 was greater than 50 µM.

What about the IC50 [2] of the same compound?
Its IC50 is greater than 50 µM.

For CN(Cc1cc2ccccc2s1)c1ncc2c(N)nc(N)nc2n1, which IC50 is on record?
The IC50 was 32 µM.

And the IC50 [1]?
Its IC50 is 25 µM.

And the IC50 [2]?
The IC50 was 25 µM.

Which results are given for CC(c1ccccn1)N(C)Cc1nc2ccccc2n1C(C)C (configuration not stated)?
IC50: 3.2 µM; IC50 [1]: 16 µM; IC50 [2]: 2 µM

With Cc1[nH]n2c(=O)c3c(nc2c1-c1ccc(Cl)cc1)CCCC3 as the compound, how does the IC50 read?
Its IC50 is > 50 µM (inactive).

And the IC50 [1]?
Its IC50 is 13 µM.

And the IC50 [2]?
The IC50 was greater than 50 µM.

CC(C)(C)C(Cn1ccnc1)NC(=O)c1ccc2nc(C3CC3)oc2c1 (configuration not stated) was tested. Which IC50 did it give?
Its IC50 is > 50 µM (inactive).

And the IC50 [1]?
The IC50 was 16 µM.

What about the IC50 [2] of the same compound?
The IC50 was greater than 50 µM.

For COc1cccc(-c2cc(C(F)(F)F)nc(-n3ccc([N+](=O)[O-])n3)n2)c1, which IC50 is on record?
Its IC50 is > 50 µM (inactive).

What about the IC50 [1] of the same compound?
Its IC50 is greater than 50 µM.

What about the IC50 [2] of the same compound?
Its IC50 is greater than 50 µM.

Which IC50 does the source give for Cc1c(CNC(=O)c2ccc(Cn3cc(Cl)c([N+](=O)[O-])n3)cc2)cnn1C here?
The IC50 was > 50 µM (inactive).

What about the IC50 [1] of the same compound?
Its IC50 is greater than 50 µM.

What about the IC50 [2] of the same compound?
The IC50 was greater than 50 µM.

Which results are given for CC(=O)Nc1ccc(Nc2nccc(-c3cnn4ncccc34)n2)cc1C(F)(F)F?
IC50: 0.025 µM; IC50 [1]: 0.01 µM; IC50 [2]: 0.016 µM

How did the IC50 turn out when Cc1cc(Nc2cc(C3CC3)[nH]n2)nc(N2CCCC2)n1 was run?
The IC50 was 0.16 µM.

And the IC50 [1]?
The IC50 was 0.13 µM.

And the IC50 [2]?
Its IC50 is 0.05 µM.

With N#Cc1ccc(Br)cc1[N+](=O)[O-] as the compound, how does the IC50 read?
Its IC50 is 20 µM.

And the IC50 [1]?
The IC50 was 25 µM.

And the IC50 [2]?
The IC50 was 13 µM.

Which results are given for Cc1ccccc1CNC(=O)CN(Cc1ccccn1)Cc1ccccn1?
IC50: 6.3 µM; IC50 [1]: > 79 µM; IC50 [2]: 4 µM

With CC(C)Nc1nccc(-c2c(-c3ccc(F)cc3)ncn2C2CCOCC2)n1 as the compound, how does the IC50 read?
Its IC50 is 25 µM.

And the IC50 [1]?
Its IC50 is greater than 50 µM.

And the IC50 [2]?
The IC50 was 16 µM.

How did the IC50 turn out when Cc1ccc(NC(=O)c2ccc([N+](=O)[O-])s2)cc1S(=O)(=O)N1CCOCC1 was run?
The IC50 was 3.2 µM.

And the IC50 [1]?
The IC50 was 40 µM.

And the IC50 [2]?
The IC50 was 2 µM.

With Cc1[nH]n2c(=O)c3c(nc2c1-c1ccc(F)cc1)CCCC3 as the compound, how does the IC50 read?
The IC50 was > 50 µM (inactive).

And the IC50 [1]?
Its IC50 is greater than 50 µM.

What about the IC50 [2] of the same compound?
The IC50 was greater than 50 µM.

With c1ccc(Nc2nc3ccccc3[nH]2)nc1 as the compound, how does the IC50 read?
Its IC50 is 7.9 µM.

What about the IC50 [1] of the same compound?
Its IC50 is 25 µM.

And the IC50 [2]?
The IC50 was 7.9 µM.

How did the IC50 turn out when Cc1ccnc(NS(=O)(=O)c2ccc(NC(=O)c3ccc([N+](=O)[O-])s3)cc2)n1 was run?
The IC50 was 10 µM.

What about the IC50 [1] of the same compound?
The IC50 was 10 µM.

What about the IC50 [2] of the same compound?
The IC50 was 5 µM.

Which results are given for CN(C)c1ccc(N)cc1CN(CC1CCCO1)S(C)(=O)=O (configuration not stated)?
IC50: 13 µM; IC50 [1]: > 50 µM; IC50 [2]: 10 µM

For COc1cc(Nc2nccc(Nc3onc(C)c3C)n2)cc(S(=O)(=O)C2CCOCC2)c1, which IC50 is on record?
The IC50 was > 50 µM (inactive).

And the IC50 [1]?
Its IC50 is 40 µM.

And the IC50 [2]?
The IC50 was 5 µM.

For Cn1nc(-c2ccc(NC(=O)Cc3ccccc3Cl)cc2)c2c(N)ncnc21, which IC50 is on record?
The IC50 was > 50 µM (inactive).

What about the IC50 [1] of the same compound?
Its IC50 is greater than 50 µM.

What about the IC50 [2] of the same compound?
The IC50 was greater than 50 µM.

With O=S(=O)(c1ccccc1C(F)(F)F)N1CCN(Cc2ccc(-n3ccnc3)cc2)CC1 as the compound, how does the IC50 read?
Its IC50 is > 50 µM (inactive).

What about the IC50 [1] of the same compound?
The IC50 was 16 µM.

What about the IC50 [2] of the same compound?
Its IC50 is 25 µM.

How did the IC50 turn out when CN(Cc1cccnc1)Cc1ccc(N2CCN(C(=O)C3(c4ccc(Cl)cc4)CC3)CC2)nc1 was run?
Its IC50 is > 50 µM (inactive).

What about the IC50 [1] of the same compound?
The IC50 was 10 µM.

What about the IC50 [2] of the same compound?
The IC50 was greater than 50 µM.

Which IC50 does the source give for CC(Cn1ccnc1)NC(=O)COc1ccc(Cl)c(Cl)c1 (configuration not stated) here?
Its IC50 is > 50 µM (inactive).

What about the IC50 [1] of the same compound?
The IC50 was greater than 50 µM.

And the IC50 [2]?
Its IC50 is greater than 50 µM.

Which results are given for COCc1cc(Nc2ccc(Cl)cc2)nc(-c2ccccn2)n1?
IC50: 1.3 µM; IC50 [1]: 20 µM; IC50 [2]: 0.79 µM

With N#Cc1cc(-c2ccnc(Nc3cccc(CN4CCOCC4)c3)n2)ccc1NCCN as the compound, how does the IC50 read?
Its IC50 is 1.6 µM.

What about the IC50 [1] of the same compound?
The IC50 was 7.9 µM.

And the IC50 [2]?
The IC50 was 0.79 µM.

Which IC50 does the source give for O=C(O)[C@H]1C[C@@H]1c1ccc(-c2ccc(CN(CCc3ccccn3)C(=O)C3CCC3)cc2)cc1 here?
The IC50 was > 50 µM (inactive).

What about the IC50 [1] of the same compound?
Its IC50 is greater than 50 µM.

What about the IC50 [2] of the same compound?
The IC50 was greater than 50 µM.

What does the source list for COc1cc(F)c2ncc(F)c(CCN3CC[C@H](NCc4cc5c(cn4)OCS5)[C@@H](O)C3)c2c1?
IC50: 16 µM; IC50 [1]: 16 µM; IC50 [2]: 13 µM

How did the IC50 turn out when COc1ccc2nccc(NC(=O)C3(OC)CCN(CC(O)c4ccc5c(c4)OCCO5)CC3)c2n1 (configuration not stated) was run?
The IC50 was 20 µM.

And the IC50 [1]?
Its IC50 is 25 µM.

And the IC50 [2]?
The IC50 was 6.3 µM.

COc1ccc(Nc2nc(-c3ccccn3)cs2)c(OC)c1 was tested. Which IC50 did it give?
Its IC50 is 2.5 µM.

And the IC50 [1]?
The IC50 was greater than 50 µM.

And the IC50 [2]?
Its IC50 is 2 µM.

With O=C(N1CCc2ccccc2CC1)C1(C(=O)N2CCC(n3c(=O)[nH]c4ncccc43)CC2)CC1 as the compound, how does the IC50 read?
Its IC50 is > 50 µM (inactive).

What about the IC50 [1] of the same compound?
The IC50 was greater than 50 µM.

And the IC50 [2]?
Its IC50 is greater than 50 µM.

What does the source list for Cc1cc(Oc2cc(Cl)c(Cl)cc2Cl)n2ncnc2n1?
IC50: 16 µM; IC50 [1]: 10 µM; IC50 [2]: 13 µM

For C=CCN(Cc1cccs1)C(=O)CSc1nnc(-c2ccc3c(c2)OCO3)o1, which IC50 is on record?
Its IC50 is 3.2 µM.

And the IC50 [1]?
Its IC50 is greater than 50 µM.

What about the IC50 [2] of the same compound?
The IC50 was 1.3 µM.
